Results reported in patent US9533965B2, “2-arylbenzofuran-7-formamide compounds, preparation method and use thereof” (SHANGHAI INSTITUTE OF MATERIA MEDICA, CHINESE ACADEMY OF …, priority 2012, dated 2017).

Legend:
TNKS1 = biological target: T1, TNKS1 (Homo sapiens, UniProt O95271); assay: Enzymatic inhibition on the PARP family members (ELISA), TNKS1; type: biochemical; conditions: PARP family panel, 30° C.
T1 sequence (O95271 1-1327): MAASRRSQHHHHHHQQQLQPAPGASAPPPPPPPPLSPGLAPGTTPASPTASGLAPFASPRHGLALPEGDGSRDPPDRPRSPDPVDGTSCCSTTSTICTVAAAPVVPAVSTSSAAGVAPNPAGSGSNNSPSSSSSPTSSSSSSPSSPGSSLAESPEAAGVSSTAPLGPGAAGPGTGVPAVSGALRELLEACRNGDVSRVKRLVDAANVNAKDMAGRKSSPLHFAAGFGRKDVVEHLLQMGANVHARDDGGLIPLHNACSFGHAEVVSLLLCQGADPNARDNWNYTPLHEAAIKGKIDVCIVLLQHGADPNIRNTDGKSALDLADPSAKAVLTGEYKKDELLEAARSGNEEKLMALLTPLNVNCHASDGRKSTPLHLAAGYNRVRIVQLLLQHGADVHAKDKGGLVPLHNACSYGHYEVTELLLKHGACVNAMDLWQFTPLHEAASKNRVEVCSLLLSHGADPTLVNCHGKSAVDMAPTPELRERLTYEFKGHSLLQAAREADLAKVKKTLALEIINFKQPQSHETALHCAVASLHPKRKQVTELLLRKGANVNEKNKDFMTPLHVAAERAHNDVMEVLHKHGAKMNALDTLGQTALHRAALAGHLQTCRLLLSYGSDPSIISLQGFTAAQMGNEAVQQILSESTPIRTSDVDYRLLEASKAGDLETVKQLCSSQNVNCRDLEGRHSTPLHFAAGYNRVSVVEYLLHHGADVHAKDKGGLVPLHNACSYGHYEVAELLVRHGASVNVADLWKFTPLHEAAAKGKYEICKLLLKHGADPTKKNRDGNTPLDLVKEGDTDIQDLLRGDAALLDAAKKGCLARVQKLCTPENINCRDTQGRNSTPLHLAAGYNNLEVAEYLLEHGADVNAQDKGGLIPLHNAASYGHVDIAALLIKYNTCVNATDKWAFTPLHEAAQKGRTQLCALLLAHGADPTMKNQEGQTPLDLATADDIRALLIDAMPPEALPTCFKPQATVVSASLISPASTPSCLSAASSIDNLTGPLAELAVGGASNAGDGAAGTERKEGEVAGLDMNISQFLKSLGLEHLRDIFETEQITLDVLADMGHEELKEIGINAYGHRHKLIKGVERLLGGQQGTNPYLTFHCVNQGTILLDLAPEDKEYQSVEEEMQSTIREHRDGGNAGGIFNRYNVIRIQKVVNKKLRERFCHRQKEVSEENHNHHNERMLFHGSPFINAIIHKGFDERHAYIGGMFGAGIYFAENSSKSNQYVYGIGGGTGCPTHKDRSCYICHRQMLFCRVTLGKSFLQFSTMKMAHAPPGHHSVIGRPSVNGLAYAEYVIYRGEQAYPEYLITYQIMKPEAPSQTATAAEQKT

PARP3 = biological target: T2, PARP3 (Homo sapiens, UniProt Q9Y6F1); assay: Enzymatic inhibition on the PARP family members (ELISA), PARP3; type: biochemical; conditions: PARP family panel
T2 sequence (Q9Y6F1 1-533): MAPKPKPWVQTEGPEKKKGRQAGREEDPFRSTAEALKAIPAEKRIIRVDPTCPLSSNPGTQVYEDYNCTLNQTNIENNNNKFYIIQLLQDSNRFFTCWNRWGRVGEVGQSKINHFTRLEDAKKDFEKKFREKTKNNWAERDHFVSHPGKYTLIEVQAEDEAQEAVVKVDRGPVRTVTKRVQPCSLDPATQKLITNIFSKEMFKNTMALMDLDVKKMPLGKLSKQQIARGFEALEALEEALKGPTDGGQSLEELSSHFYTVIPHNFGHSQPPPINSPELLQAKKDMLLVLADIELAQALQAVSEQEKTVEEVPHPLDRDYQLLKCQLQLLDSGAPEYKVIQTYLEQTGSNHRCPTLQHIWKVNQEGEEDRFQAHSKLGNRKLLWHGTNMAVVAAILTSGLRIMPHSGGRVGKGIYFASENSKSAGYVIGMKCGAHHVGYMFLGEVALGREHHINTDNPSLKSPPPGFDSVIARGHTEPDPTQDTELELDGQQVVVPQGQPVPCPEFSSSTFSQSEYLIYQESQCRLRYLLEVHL

wild type cell line V79 = assay: In vitro cell proliferation inhibition (MTT), V79 cells; type: cell-based, Chinese hamster; conditions: Cricetulus griseus; MTT, 72 h, wild type V79; read-out: V79 cell IC50
PARP2 = PARP2 (Homo sapiens, UniProt Q9UGN5); assay: Enzymatic inhibition on the PARP family members (ELISA), PARP2; type: biochemical; conditions: PARP family panel
PARP2, sequence (Q9UGN5 whole entry): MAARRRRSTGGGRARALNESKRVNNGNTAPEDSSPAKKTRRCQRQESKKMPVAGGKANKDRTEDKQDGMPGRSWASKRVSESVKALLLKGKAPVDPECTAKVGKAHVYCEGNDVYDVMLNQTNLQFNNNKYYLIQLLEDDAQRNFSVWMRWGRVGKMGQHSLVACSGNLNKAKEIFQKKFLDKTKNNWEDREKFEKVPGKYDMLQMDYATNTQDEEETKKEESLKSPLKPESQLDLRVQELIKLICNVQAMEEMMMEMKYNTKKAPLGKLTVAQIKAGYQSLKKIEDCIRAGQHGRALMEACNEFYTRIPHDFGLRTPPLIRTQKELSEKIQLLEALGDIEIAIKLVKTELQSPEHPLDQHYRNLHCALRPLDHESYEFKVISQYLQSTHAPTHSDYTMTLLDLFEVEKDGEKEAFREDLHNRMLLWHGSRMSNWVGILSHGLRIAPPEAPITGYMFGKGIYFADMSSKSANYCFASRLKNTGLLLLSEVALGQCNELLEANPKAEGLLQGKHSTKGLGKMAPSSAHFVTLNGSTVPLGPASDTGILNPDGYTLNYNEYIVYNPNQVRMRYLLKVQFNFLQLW

- IC50 (TNKS1): 1.6 µM
- IC50 (PARP3): > 10 µM
- IC50 (PARP2): 0.0019 µM
SMILES: CNCc1ccc(-c2cc3cc(F)cc(C(N)=O)c3o2)cc1 [compound 5b, 5-fluoro-2-{4-[(methylamino)methyl]phenyl}benzofuran-7-carboxamide]
- IC50 (wild type cell line V79): > 10 µM
